This is an account of results in patent publication US10314912B2, “Polymer coating compositions and coated products” (Ariste Medical, LLC, priority 2012, dated 2019).

The nature of data set [1]: HPLC test of drug stability to curing light in coating composition components.
Method: HPLC tests were performed to assess the effects of various components of the coating composition on drug stability. HPLC analysis was run on the starting 50 μg/ml drug solution as a control. HPLC parameters were as follows: Channel A=>35 mM sodium phosphate pH=7.5 w/1 v % TEA; Channel B=>acetonitrile; 0-50% B 0-10 min, 50% B 10-13 min, 50-0% B 13-15 min, 0% B 6 min post time; 20 μl injections; 1 ml/min; 30° C.; 335 nm. […] Samples tested included: (1) Solvent+Drug; (2) Solvent+Photoinitiator (PI)+Drug; and (3) Solvent+Monomer Component+PI+Drug. […] The Solvent+PI+Drug (Sample 2) samples were prepared as follows: 1% wt/wt IrgaCure® 2959 was added to the 50 μg/ml drug solution solutions and cured according to the parameters described for Formulation 5 in Table 2. The Solvent+Monomer Component+PI+Drug+Drug (Sample 3) were prepared as follows: ˜3 ml Formulation 5 (Table 2) inspired solution with exception of using the 50 μg/ml drug solution and 20 wt % comonomer as the solvent was created and exposed to cure parameters detailed for Formulation 5 (Table 2) followed by HPLC analysis upon blending 1:1 with methanol, to terminate polymerization reaction/free-radicals. Note: polymerization of small volumes of Formulation 5 results in evaporation of the acetone solvent, thereby concentrating the monomers. […] FIG. 5A depicts HPLC chromatograms from the Sample 1 (dark gray line) and Sample 2 (light gray line) without exposure to light. […] FIG. 5B depicts chromatograms from the Sample 1 samples without light exposure and with light exposure. […] FIG. 5C depicts chromatograms from Sample 2 without light exposure and with light exposure. […] FIG. 5D depicts chromatograms from Sample 1 and Sample 3 after exposure to light.
Data set [2] in a line: HPLC of methanol extracts: drug loading of coated ePTFE hernia mesh. Format: physicochemical. As to conditions: soak in 10 mg/ml of each drug in methanol, ~17 hours, 4° C.
Method: Specimens were then removed from drug solution and dried in air. Following air-drying, specimens were rinsed in either methanol) or water. For the methanol rinse, specimens were suspended using forceps and agitated by hand in two consecutive 15 ml methanol rinses for 15 seconds, then allowed to air dry. For the water rinse, specimens were transferred to 10 ml of deionized water in conical tubes and aggressively vortexed for 2 minutes. Specimens were then allowed to air dry. The above steps resulting in the following four conditions: (a) 1 coat—water rinse; (b) 3 coats—water rinse; (c) 1 coat—methanol rinse; and (d) 3 coat—methanol rinse.
Dried specimens were individually extracted in 1 ml of methanol at 4° C. for 64 or 76 hours. 20 μl of each extract were run on HPLC to assess the effects of rinse method and number of coating cycles on drug loading of the coatings. HPLC conditions were as follows: 30° C.; 250×3 mm C-18 with 5 μm packing; 280 nm absorbance; Channel A—35 mM Na2HPO4 with 1 vol % triethylamine, pH=8.1 w/phosphoric acid; Channel B—acetonitrile/Running parameters at 1 ml/min: (i) 0-10 minutes—gradient 0-50 vol % Channel B; (ii) 10-20 minutes—50 vol % Channel B; (iii) 20-25 minutes—20-0 vol % Channel B.

Turning to `CO[C@H]1/C=C/O[C@@]2(C)Oc3c(C)c(O)c4c(O)c(c(/C=N/N5CCN(C)CC5)c(O)c4c3C2=O)NC(=O)/C(C)=C\C=C\[C@H](C)[C@H](O)[C@@H](C)[C@@H](O)[C@@H](C)[C@H](OC(C)=O)[C@@H]1C` [rifampin], the “drug stability (HPLC peaks)” value in data set [1] (50 μg/ml in acetone, with or without photoinitiator, without exposure to light, FIG. 5A) is “stable”; in data set [1] (Sample 1, solvent alone, with light exposure, FIG. 5B) it was “degraded by light exposure”; in data set [1] (Sample 2, solvent + 1% wt/wt IrgaCure 2959, with light exposure, FIG. 5C), “did not protect the drugs from light-induced degradation”. Also, the “absorption of drug into polymerized coating” value in data set [2] is “absorbed into the methacrylate coating matrix”.
